According to paper PMC11857742, “Antiaging Potential of Lipophilic Extracts of Caulerpa prolifera” (Marine Drugs, 2025):

Target: T1, collagenase
T1 construct: gene colG; usual product is native clostridial collagenase
Test: FALGPA hydrolysis, ninhydrin detection at […] nm
Assay type: biochemical
Details: pH 7.4, 37 °C, TES, calcium chloride; chelates the metal cofactor

With `O=C(O)CN(CCN(CC(=O)O)CC(=O)O)CC(=O)O` [EDTA] the “Collagenase / IC50” value was 51.2 ± 0.12 µg/mL.
